In ChEMBL document CHEMBL4000200, “Structure-activity relationships of 4-hydroxy-4-biaryl-proline acylsulfonamide tripeptides: A series of potent NS3 protease inhibitors for the treatment of hepatitis C virus” (Bioorg Med Chem Lett, 2017):

Columns and labels:
Hepatitis C virus = experiment: Antiviral activity against HCV genotype 1b by cell based replicon assay; assay type: functional, Hepacivirus hominis
[1] = Inhibition of HCV genotype 1a NS3/4A protease; parameters: species or system Hepatitis C virus subtype 1a
Heart [2] = experiment: Cardiotoxicity in Langendorff perfused rabbit heart assessed as heart rate at 10 uM perfused for 20 mins (reference value: -3 +/- 3%); assay type: toxicity, tissue-based, Oryctolagus cuniculus
Heart [3] = experiment: Cardiotoxicity in Langendorff perfused rabbit heart assessed as coronary flow at 10 uM perfused for 20 mins (reference value: -6 +/- 8%); assay type: toxicity, tissue-based, Oryctolagus cuniculus
[4] = Drug uptake in id dosed rat liver after 4 hrs; assay type: ADME, organism-based; conditions: read-out: Drug uptake
Heart [5] = experiment: Cardiotoxicity in Langendorff perfused rabbit heart assessed as heart rate at 10 uM perfused for 10 mins (reference value: -1 +/- 1%); assay type: toxicity, tissue-based, Oryctolagus cuniculus
[6] = Permeability of the compound at pH 7.4 by PAMPA; assay type: physicochemical; conditions: read-out: permeability
[7] = Permeability of the compound at pH 5.5 by PAMPA; assay type: physicochemical; conditions: read-out: permeability
[8] = AUC in id dosed rat plasma after 4 hrs; assay type: ADME, organism-based; parameters: time < 4 hr
Heart [9] = experiment: Cardiotoxicity in Langendorff perfused rabbit heart assessed as coronary flow at 10 uM perfused for 10 mins (reference value: -4 +/- 6%); assay type: toxicity, tissue-based, Oryctolagus cuniculus
Heart [10] = experiment: Cardiotoxicity in Langendorff perfused rabbit heart assessed as sinoatrial node recovery time at 10 uM perfused for 10 mins (reference value: 3 +/- 1%); assay type: toxicity, tissue-based, Oryctolagus cuniculus
Heart [11] = experiment: Cardiotoxicity in Langendorff perfused rabbit heart assessed as sinoatrial node recovery time at 10 uM perfused for 20 mins (reference value: 4 +/- 5%); assay type: toxicity, tissue-based, Oryctolagus cuniculus
[12] = Oral bioavailability in rat at 15 mg/kg after 24 hrs; assay type: ADME, organism-based; conditions: in vivo
[13] = Half life in rat at 5 mg/kg, iv; assay type: ADME, organism-based; conditions: in vivo
[14] = Drug uptake in rat liver at 15 mg/kg, po after 24 hrs; assay type: ADME, organism-based; conditions: read-out: Drug uptake
[15] = Clearance in rat at 5 mg/kg, iv; assay type: ADME, organism-based; conditions: in vivo
[16] = AUC in rat at 15 mg/kg, po after 24 hrs; assay type: ADME, organism-based; parameters: dose 15 mg/kg, time < 24 hr, route oral; conditions: in vivo

| SMILES | EC50 (Hepatitis C virus) [nM] | IC50 [1] [nM] | other results |
| --- | --- | --- | --- |
| C=C[C@@H]1C[C@]1(NC(=O)[C@@H]1C[C@@](O)(c2ccc(-c3nccs3)cc2)CN1C(=O)[C@@H](NC(=O)OC(C)(C)C)C(C)(C)C)C(=O)NS(=O)(=O)C1CC1 | 41 | 2 | – |
| C=C[C@@H]1C[C@]1(NC(=O)[C@@H]1C[C@@](O)(c2ccc(F)cc2)CN1C(=O)[C@@H](NC(=O)OC(C)(C)C)C(C)(C)C)C(=O)NS(=O)(=O)C1CC1 | 2470 | 190 | – |
| C=C[C@@H]1C[C@]1(NC(=O)[C@@H]1C[C@@](O)(c2cccc(Cl)c2)CN1C(=O)[C@@H](NC(=O)OC(C)(C)C)C(C)(C)C)C(=O)NS(=O)(=O)C1CC1 | 3660 | 80 | – |
| C=C[C@@H]1C[C@]1(NC(=O)[C@@H]1C[C@@](O)(c2nc3ccccc3s2)CN1C(=O)[C@@H](NC(=O)OC(C)(C)C)C(C)(C)C)C(=O)NS(=O)(=O)C1CC1 | 1120 | 127 | – |
| C=C[C@@H]1C[C@]1(NC(=O)[C@@H]1C[C@@](O)(c2ccc3ccccc3c2)CN1C(=O)[C@@H](NC(=O)OC(C)(C)C)C(C)(C)C)C(=O)NS(=O)(=O)C1CC1 | 412 | 26 | – |
| C=C[C@@H]1C[C@]1(NC(=O)[C@@H]1C[C@@](O)(c2ccc(-c3ccccn3)cc2)CN1C(=O)[C@@H](NC(=O)OC(C)(C)C)C(C)(C)C)C(=O)NS(=O)(=O)C1CC1 | 39 | 2 | – |
| C=C[C@@H]1C[C@]1(NC(=O)[C@@H]1C[C@@](O)(c2cc(C)ccc2C)CN1C(=O)[C@@H](NC(=O)OC(C)(C)C)C(C)(C)C)C(=O)NS(=O)(=O)C1CC1 | 2310 | 136 | – |
| C=C[C@@H]1C[C@]1(NC(=O)[C@@H]1CC(=O)CN1C(=O)[C@@H](NC(=O)OC(C)(C)C)C(C)(C)C)C(=O)NS(=O)(=O)C1CC1 | 70700 | 3900 | – |
| C=C[C@@H]1C[C@]1(NC(=O)[C@@H]1C[C@@](O)(c2ccc(-c3ccccc3)cc2)CN1C(=O)[C@@H](NC(=O)OC(C)(C)C)C(C)(C)C)C(=O)NS(=O)(=O)C1CC1 | 22 to 26 | 4 | Activity (Heart [2]): -4%; Activity (Heart [3]): -2%; concentration at 4 h [4]: 128 ng/g; Activity (Heart [5]): -2%; Papp [6]: 21.1 ×10⁻⁶ cm/s; Papp [7]: 7.9 ×10⁻⁶ cm/s; AUC at 4 h [8]: 0.9 µM·h; Activity (Heart [9]): 2%; Activity (Heart [10]): 2%; Activity (Heart [11]): 7% |
| C=C[C@@H]1C[C@]1(NC(=O)[C@@H]1C[C@@](O)(c2cc(C)cc(C)c2)CN1C(=O)[C@@H](NC(=O)OC(C)(C)C)C(C)(C)C)C(=O)NS(=O)(=O)C1CC1 | 6450 | 80 | – |
| C=C[C@@H]1C[C@]1(NC(=O)[C@@H]1C[C@@H](Oc2ncc(OC)c3ccc(Cl)cc23)CN1C(=O)[C@@H](NC(=O)OC(C)(C)C)C(C)(C)C)C(=O)NS(=O)(=O)C1CC1 | – | – | Activity (Heart [2]): -1%; Activity (Heart [3]): -1%; Activity (Heart [5]): 1%; Activity (Heart [9]): -3%; Activity (Heart [10]): -1%; Activity (Heart [11]): 4% |
| C=C[C@@H]1C[C@]1(NC(=O)[C@@H]1C[C@@](O)(c2ccc(F)c(C)c2)CN1C(=O)[C@@H](NC(=O)OC(C)(C)C)C(C)(C)C)C(=O)NS(=O)(=O)C1CC1 | 7700 | 134 | – |
| C=C[C@@H]1C[C@]1(NC(=O)[C@@H]1C[C@@](O)(c2cccc(OC(C)C)c2)CN1C(=O)[C@@H](NC(=O)OC(C)(C)C)C(C)(C)C)C(=O)NS(=O)(=O)C1CC1 | 6250 | 101 | – |
| C=C[C@@H]1C[C@]1(NC(=O)[C@@H]1C[C@@](O)(c2cccc(CN3CCOCC3)c2)CN1C(=O)[C@@H](NC(=O)OC(C)(C)C)C(C)(C)C)C(=O)NS(=O)(=O)C1CC1 | 3460 | 162 | – |
| C=C[C@@H]1C[C@]1(NC(=O)[C@@H]1C[C@@](OC)(c2ccc(-c3ccccc3)cc2)CN1C(=O)[C@@H](NC(=O)OC(C)(C)C)C(C)(C)C)C(=O)NS(=O)(=O)C1CC1 | 9 | 2 | bioavailability [12]: 58%; Activity (Heart [2]): -3%; Activity (Heart [3]): 20%; concentration at 4 h [4]: 195000 ng/g; Activity (Heart [5]): -6%; half-life [13]: 4.6 h; Papp [6]: 43.8 ×10⁻⁶ cm/s; Papp [7]: 38.1 ×10⁻⁶ cm/s; AUC at 4 h [8]: 2.45 µM·h; Activity (Heart [9]): 27%; concentration at 24 h [14]: 1100 nM; clearance [15]: 17.8 mL/min/kg; AUC at 24 h [16]: 14.1 µM·h; Activity (Heart [10]): 8%; Activity (Heart [11]): 7% |
| C=C[C@@H]1C[C@]1(NC(=O)[C@@H]1C[C@@](O)(c2ccc(OC)cc2)CN1C(=O)[C@@H](NC(=O)OC(C)(C)C)C(C)(C)C)C(=O)NS(=O)(=O)C1CC1 | 1470 | 105 | – |
| C=C[C@@H]1C[C@]1(NC(=O)[C@@H]1C[C@@](O)(c2ccccc2)CN1C(=O)[C@@H](NC(=O)OC(C)(C)C)C(C)(C)C)C(=O)NS(=O)(=O)C1CC1 | 2360 | 140 | – |

More lines, main results first:

| EC50 (Hepatitis C virus) [nM] | IC50 [1] [nM] | SMILES | other results |
| --- | --- | --- | --- |
| 3700 | 52 | C=C[C@@H]1C[C@]1(NC(=O)[C@@H]1C[C@@](O)(c2cccc(OC)c2)CN1C(=O)[C@@H](NC(=O)OC(C)(C)C)C(C)(C)C)C(=O)NS(=O)(=O)C1CC1 | – |
| 3210 | 620 | C=C[C@@H]1C[C@]1(NC(=O)[C@@H]1C[C@@](O)(c2cccc(-c3ccc(OC)cc3)c2)CN1C(=O)[C@@H](NC(=O)OC(C)(C)C)C(C)(C)C)C(=O)NS(=O)(=O)C1CC1 | – |
| 3940 | 728 | C=C[C@@H]1C[C@]1(NC(=O)[C@@H]1C[C@@](O)(c2cc(F)ccc2OC)CN1C(=O)[C@@H](NC(=O)OC(C)(C)C)C(C)(C)C)C(=O)NS(=O)(=O)C1CC1 | – |
| – | 1 to 2 | C=C[C@@H]1C[C@]1(NC(=O)[C@@H]1C[C@@H](Oc2nccc3cc(OC)ccc23)CN1C(=O)[C@@H](NC(=O)OC(C)(C)C)C(C)(C)C)C(=O)NS(=O)(=O)C1CC1 | Activity (Heart [2]): -32%; Activity (Heart [3]): 10%; concentration at 4 h [4]: 64700 ng/g; Activity (Heart [5]): -13%; Papp [6]: 17.8 ×10⁻⁶ cm/s; Papp [7]: 57.4 ×10⁻⁶ cm/s; AUC at 4 h [8]: 10.4 µM·h; Activity (Heart [9]): 12%; Activity (Heart [10]): 69%; Activity (Heart [11]): 360% |
| 97 | 7 | C=C[C@@H]1C[C@]1(NC(=O)[C@@H]1C[C@@](O)(c2ccc(-n3cccc3)cc2)CN1C(=O)[C@@H](NC(=O)OC(C)(C)C)C(C)(C)C)C(=O)NS(=O)(=O)C1CC1 | – |
| 265 | 50 | C=C[C@@H]1C[C@]1(NC(=O)[C@@H]1C[C@@](O)(c2ccc(Oc3ccccc3)cc2)CN1C(=O)[C@@H](NC(=O)OC(C)(C)C)C(C)(C)C)C(=O)NS(=O)(=O)C1CC1 | – |
| 24 | 5 | C=C[C@@H]1C[C@]1(NC(=O)[C@@H]1C[C@@](O)(c2ccc(-c3ccccc3OC)cc2)CN1C(=O)[C@@H](NC(=O)OC(C)(C)C)C(C)(C)C)C(=O)NS(=O)(=O)C1CC1 | – |
| 3270 | 76 | C=C[C@@H]1C[C@]1(NC(=O)[C@@H]1C[C@@](O)(c2cccc(C)c2)CN1C(=O)[C@@H](NC(=O)OC(C)(C)C)C(C)(C)C)C(=O)NS(=O)(=O)C1CC1 | – |
| 4950 | 291 | C=C[C@@H]1C[C@]1(NC(=O)[C@@H]1C[C@@](O)(c2ccccc2CN2CCOCC2)CN1C(=O)[C@@H](NC(=O)OC(C)(C)C)C(C)(C)C)C(=O)NS(=O)(=O)C1CC1 | – |
| 4060 | 57 | C=C[C@@H]1C[C@]1(NC(=O)[C@@H]1C[C@@](O)(c2cccc(F)c2)CN1C(=O)[C@@H](NC(=O)OC(C)(C)C)C(C)(C)C)C(=O)NS(=O)(=O)C1CC1 | – |
| 8370 | 703 | C=C[C@@H]1C[C@]1(NC(=O)[C@@H]1C[C@@](O)(c2cccc(C(C)C)c2)CN1C(=O)[C@@H](NC(=O)OC(C)(C)C)C(C)(C)C)C(=O)NS(=O)(=O)C1CC1 | – |
| 30500 | 1500 | C=CC[C@]1(O)C[C@@H](C(=O)N[C@]2(C(=O)NS(=O)(=O)C3CC3)C[C@H]2C=C)N(C(=O)[C@@H](NC(=O)OC(C)(C)C)C(C)(C)C)C1 | – |
| 4240 | 568 | C=C[C@@H]1C[C@]1(NC(=O)[C@@H]1C[C@@](O)(c2ccc(C)c(F)c2)CN1C(=O)[C@@H](NC(=O)OC(C)(C)C)C(C)(C)C)C(=O)NS(=O)(=O)C1CC1 | – |
| 3400 | 960 | C=C[C@@H]1C[C@]1(NC(=O)[C@@H]1C[C@@](O)(c2cccc(N(C)C)c2)CN1C(=O)[C@@H](NC(=O)OC(C)(C)C)C(C)(C)C)C(=O)NS(=O)(=O)C1CC1 | – |
